Calls of active or inactive are those of the source.
Key:
Caspase-3 = target: T1, Caspase-3 (Homo sapiens, UniProt P42574); format: functional;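 also: Dose-response selectivity test against caspase-3 for candidate inhibitors of sentrin-specific proteases (SENPs)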
T1 sequence (P42574 whole entry): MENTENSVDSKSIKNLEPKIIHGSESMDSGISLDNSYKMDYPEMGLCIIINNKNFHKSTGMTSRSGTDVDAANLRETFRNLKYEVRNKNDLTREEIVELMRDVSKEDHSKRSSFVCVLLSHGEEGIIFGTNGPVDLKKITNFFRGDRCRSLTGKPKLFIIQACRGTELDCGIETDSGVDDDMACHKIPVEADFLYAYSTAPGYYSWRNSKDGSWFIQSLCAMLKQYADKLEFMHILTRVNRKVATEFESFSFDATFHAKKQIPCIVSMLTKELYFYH

[1] = target: T2, Sentrin-specific protease 7 (Homo sapiens, UniProt Q9BQF6); format: functional;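 also: Luminescence-based dose-response confirmation of ultra-high-throughput screening hits, measuring inhibition of SENP7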
T2 sequence (Q9BQF6 whole entry): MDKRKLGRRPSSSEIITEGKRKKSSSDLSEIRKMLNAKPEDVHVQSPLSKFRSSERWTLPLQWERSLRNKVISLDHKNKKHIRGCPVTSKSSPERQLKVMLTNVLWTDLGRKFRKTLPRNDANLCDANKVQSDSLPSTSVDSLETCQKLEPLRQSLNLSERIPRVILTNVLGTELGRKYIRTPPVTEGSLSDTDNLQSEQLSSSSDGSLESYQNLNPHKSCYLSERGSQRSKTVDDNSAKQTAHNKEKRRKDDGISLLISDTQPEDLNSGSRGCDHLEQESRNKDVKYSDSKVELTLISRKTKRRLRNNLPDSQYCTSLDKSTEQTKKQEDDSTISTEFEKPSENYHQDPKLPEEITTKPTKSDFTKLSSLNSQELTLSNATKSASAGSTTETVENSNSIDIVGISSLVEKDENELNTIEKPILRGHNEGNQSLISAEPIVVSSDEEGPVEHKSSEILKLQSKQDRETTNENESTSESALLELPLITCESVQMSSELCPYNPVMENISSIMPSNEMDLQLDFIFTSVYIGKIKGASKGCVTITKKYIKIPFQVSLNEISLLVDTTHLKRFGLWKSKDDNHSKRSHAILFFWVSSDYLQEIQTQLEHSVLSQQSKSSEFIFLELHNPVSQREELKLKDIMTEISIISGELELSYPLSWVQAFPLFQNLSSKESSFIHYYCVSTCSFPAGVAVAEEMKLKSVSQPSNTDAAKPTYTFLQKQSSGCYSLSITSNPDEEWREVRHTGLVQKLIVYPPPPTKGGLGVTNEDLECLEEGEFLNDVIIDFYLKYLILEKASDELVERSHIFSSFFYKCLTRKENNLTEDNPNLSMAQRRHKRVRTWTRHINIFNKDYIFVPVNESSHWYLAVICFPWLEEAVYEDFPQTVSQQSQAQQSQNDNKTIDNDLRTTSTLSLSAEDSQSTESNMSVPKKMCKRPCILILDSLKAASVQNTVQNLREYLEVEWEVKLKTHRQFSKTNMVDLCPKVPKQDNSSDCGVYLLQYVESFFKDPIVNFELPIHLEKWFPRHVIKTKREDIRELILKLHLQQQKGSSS

[2] = target: T3, Sentrin-specific protease 6 (Homo sapiens, UniProt Q9GZR1); format: functional;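 also: Luminescence-based dose-response confirmatory assay of SENP6 inhibition, following up an ultra-high-throughput screen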
T3 sequence (Q9GZR1 whole entry): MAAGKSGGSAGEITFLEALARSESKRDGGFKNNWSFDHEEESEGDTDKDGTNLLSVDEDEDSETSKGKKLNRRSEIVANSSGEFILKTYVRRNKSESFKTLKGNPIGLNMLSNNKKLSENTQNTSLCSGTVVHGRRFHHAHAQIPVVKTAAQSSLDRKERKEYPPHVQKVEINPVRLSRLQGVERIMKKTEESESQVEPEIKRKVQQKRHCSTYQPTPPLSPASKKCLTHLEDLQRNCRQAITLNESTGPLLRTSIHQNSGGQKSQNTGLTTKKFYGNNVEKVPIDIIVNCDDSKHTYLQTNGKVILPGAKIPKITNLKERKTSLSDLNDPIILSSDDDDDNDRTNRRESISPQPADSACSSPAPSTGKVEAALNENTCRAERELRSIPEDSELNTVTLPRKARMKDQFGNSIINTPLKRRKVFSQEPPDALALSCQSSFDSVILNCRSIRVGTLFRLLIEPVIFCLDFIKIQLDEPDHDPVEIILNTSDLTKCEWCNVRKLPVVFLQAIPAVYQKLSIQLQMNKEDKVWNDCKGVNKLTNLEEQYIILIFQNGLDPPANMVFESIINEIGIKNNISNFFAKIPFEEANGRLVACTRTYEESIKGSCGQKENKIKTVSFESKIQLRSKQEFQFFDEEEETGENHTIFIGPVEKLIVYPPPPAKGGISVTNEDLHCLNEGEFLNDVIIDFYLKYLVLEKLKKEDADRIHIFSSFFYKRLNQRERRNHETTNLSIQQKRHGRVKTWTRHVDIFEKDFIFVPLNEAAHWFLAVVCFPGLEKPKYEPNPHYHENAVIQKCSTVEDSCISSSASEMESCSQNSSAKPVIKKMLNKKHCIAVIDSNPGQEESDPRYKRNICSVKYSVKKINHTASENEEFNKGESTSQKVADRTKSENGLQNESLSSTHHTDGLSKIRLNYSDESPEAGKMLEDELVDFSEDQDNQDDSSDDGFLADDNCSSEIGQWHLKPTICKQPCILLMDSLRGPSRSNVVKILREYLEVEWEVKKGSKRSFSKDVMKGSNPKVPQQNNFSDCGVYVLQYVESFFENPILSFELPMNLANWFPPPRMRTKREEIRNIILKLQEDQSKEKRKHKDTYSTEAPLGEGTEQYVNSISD

[3] = target: T4, Sentrin-specific protease 8 (Homo sapiens, UniProt Q96LD8); format: functional;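 also: luminescence read-out of SENP8 inhibition, dose-response confirmation following an ultra-high-throughput screen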
T4 sequence (Q96LD8 whole entry): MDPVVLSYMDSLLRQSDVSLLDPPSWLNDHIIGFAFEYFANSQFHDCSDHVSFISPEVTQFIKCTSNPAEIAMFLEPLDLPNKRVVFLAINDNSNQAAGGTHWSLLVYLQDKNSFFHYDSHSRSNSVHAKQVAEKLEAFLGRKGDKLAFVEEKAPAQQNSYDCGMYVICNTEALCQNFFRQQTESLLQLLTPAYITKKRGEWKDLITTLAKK

HeLa = experiment: HeLa cell cytotoxicity, dose response, cytotoxicity control for MITF activator project, CellTiter-Glo luminescence, cherry-pick samples (AID 540259); format: functional, cell-based; details: Homo sapiens
Escherichia coli = experiment: microbe, parasite or virus in culture
Beta-galactosidase = Beta-galactosidase (Escherichia coli, UniProt Q8VNN2); experiment: PubChem AID 485352; format: functional
Beta-galactosidase, sequence (Q8VNN2 whole entry): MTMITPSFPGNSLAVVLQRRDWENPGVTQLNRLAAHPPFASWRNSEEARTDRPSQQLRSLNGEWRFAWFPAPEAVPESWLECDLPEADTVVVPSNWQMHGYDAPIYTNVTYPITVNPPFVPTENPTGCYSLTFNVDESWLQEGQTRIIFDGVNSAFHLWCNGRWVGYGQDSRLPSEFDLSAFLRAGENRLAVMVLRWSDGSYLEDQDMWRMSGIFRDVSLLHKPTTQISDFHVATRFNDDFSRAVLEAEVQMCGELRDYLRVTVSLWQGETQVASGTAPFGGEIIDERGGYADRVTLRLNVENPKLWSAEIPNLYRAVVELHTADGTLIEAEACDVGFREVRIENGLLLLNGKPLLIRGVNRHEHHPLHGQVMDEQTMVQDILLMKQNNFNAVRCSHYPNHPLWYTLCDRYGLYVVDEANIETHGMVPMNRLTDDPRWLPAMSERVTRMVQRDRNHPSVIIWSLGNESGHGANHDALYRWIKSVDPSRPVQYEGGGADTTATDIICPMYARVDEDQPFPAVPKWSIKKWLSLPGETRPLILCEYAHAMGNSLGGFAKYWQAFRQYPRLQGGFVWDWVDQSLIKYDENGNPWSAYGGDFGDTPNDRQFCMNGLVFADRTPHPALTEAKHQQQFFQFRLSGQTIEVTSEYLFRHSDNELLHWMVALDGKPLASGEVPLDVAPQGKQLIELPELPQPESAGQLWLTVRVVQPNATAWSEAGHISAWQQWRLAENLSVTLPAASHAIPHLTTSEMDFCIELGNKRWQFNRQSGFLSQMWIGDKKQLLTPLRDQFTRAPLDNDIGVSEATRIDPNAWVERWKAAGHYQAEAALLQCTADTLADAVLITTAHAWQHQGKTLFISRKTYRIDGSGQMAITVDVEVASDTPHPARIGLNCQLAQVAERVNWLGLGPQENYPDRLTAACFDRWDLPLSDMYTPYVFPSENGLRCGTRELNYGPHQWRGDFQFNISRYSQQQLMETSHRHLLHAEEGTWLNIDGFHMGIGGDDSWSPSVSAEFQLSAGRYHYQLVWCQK

[4] = target: T5, Type-1 angiotensin II receptor (Homo sapiens, UniProt P30556); experiment: AT1 receptor antagonists, dose response, selectivity assay for APJ receptor antagonist project, cell-based, uHTS hits (AID 463214); format: functional;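 also: antagonist potency against angiotensin II stimulated AT1 response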
T5 sequence (P30556 whole entry): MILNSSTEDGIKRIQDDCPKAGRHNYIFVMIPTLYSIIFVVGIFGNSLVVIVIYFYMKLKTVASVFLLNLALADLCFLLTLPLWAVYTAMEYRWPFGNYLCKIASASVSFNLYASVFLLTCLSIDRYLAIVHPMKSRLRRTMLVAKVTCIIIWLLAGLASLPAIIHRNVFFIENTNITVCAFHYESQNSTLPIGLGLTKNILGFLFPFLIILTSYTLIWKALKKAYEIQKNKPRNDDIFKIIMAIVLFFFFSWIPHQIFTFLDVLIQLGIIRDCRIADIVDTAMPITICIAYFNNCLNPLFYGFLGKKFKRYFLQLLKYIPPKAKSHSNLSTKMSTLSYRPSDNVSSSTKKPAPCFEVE

[5] = inhibitors of intracellular T. cruzi replication, confirmation, NIH3T3 host cells, beta-gal luminescence (AID 2044); format: functional, cell-based;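 also: intracellular parasites grown in NIH/3T3 mouse fibroblasts as host cells; luminescent beta-galactosidase reporter signal from transgenic T. cruzi replicating inside host cells; inhibitors lower the luminescence signal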
[6] = cytotoxicity toward NIH3T3 fibroblasts, dose response, counter-screen, cell-based, ATP luminescence, mouse fibroblasts (AID 2010); format: functional;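 also: cells exposed to compound for about 90 hours before reading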
Bcl-2-related protein A1 = target: T6, Bcl-2-related protein A1 (Mus musculus, UniProt Q07440); format: functional;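 also: confirmatory dose–response counterscreen on Bfl-1, used to check hits from a UBC13 polyubiquitin inhibitor campaign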
T6 sequence (Q07440 whole entry): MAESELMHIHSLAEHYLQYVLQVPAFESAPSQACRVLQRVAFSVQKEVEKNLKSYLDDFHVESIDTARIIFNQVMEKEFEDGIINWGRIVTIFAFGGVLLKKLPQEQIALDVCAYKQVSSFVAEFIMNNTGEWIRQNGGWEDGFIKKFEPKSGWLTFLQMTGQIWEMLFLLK

[7] = target: T7, Ubiquitin-conjugating enzyme E2 N (Homo sapiens, UniProt P61088); format: functional
T7 sequence (P61088 whole entry): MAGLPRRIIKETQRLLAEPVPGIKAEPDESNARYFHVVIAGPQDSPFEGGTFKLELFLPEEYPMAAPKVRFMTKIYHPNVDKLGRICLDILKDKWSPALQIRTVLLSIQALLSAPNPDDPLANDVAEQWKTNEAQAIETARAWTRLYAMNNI

[8] = target: T7, Ubiquitin-conjugating enzyme E2 N; format: functional; remark: listed apart in the source
[9] = target: T8, Microphthalmia-associated transcription factor (Homo sapiens, UniProt O75030); experiment: TRPM1 promoter luciferase signal decrease, dose response, MITF inhibitor project, cell-based, SK-MEL-5, cherry-picked, set 3 (AID 493073); format: functional
T8 sequence (O75030 whole entry): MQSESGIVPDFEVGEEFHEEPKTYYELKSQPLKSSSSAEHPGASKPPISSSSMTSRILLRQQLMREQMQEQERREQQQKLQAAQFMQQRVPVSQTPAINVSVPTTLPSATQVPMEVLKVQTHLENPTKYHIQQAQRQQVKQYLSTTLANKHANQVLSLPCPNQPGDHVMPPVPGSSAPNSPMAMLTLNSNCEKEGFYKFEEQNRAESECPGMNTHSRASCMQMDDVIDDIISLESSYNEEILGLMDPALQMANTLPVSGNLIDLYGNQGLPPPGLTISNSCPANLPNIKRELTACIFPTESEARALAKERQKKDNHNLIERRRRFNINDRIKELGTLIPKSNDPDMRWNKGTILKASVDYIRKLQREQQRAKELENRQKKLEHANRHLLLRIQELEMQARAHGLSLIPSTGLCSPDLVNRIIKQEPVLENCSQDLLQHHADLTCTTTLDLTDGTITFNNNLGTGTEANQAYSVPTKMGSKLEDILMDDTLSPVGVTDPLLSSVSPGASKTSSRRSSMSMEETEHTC

[10] = cytotoxicity in HEK-293T cells, dose response, cytotoxicity control for BCR NF-kB inhibitor project, luminescence, B-cell screen hits (AID 489021); format: functional, cell-based;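 also: HEK-293T cells carrying an NF-kB luciferase reporter; cells exposed to compound for about 14 hours before viability readout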
INS1 = experiment: beta cell apoptosis inhibitors, cytokine rescue, dose response, luminescence, retest (AID 449756); format: functional, cell-based; details: Rattus norvegicus;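 also: cell death triggered by IL-1 beta plus TNF-alpha plus IFN-gamma mixture; protective hits raise ATP signal compared with cytokine alone wells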
A-375 = experiment: A375 melanoma cell viability reduction, dose response, counter-screen for MITF modulator project, cherry-pick samples, set 2 (AID 540335); format: functional, cell-based; details: Homo sapiens
Tumor necrosis factor = Tumor necrosis factor (Homo sapiens, UniProt P01375); experiment: TNFa-triggered NF-kB activation inhibitors, SAR follow-up, cell-based, revised (AID 2337); format: functional
Tumor necrosis factor, sequence (P01375 whole entry, the tested form may be a part): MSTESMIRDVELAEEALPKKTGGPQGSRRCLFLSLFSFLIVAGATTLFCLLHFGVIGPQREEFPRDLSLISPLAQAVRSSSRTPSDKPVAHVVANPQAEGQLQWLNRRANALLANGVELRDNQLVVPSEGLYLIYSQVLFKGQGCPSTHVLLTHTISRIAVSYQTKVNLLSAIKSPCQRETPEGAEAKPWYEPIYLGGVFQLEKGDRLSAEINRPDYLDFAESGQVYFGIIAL

[11] = target: T9, Nucleotide-binding oligomerization domain-containing protein 1 (Homo sapiens, UniProt Q9Y239); experiment: NOD1 signaling inhibitors, SAR follow-up, revised (AID 2333); format: functional
T9 sequence (Q9Y239 whole entry): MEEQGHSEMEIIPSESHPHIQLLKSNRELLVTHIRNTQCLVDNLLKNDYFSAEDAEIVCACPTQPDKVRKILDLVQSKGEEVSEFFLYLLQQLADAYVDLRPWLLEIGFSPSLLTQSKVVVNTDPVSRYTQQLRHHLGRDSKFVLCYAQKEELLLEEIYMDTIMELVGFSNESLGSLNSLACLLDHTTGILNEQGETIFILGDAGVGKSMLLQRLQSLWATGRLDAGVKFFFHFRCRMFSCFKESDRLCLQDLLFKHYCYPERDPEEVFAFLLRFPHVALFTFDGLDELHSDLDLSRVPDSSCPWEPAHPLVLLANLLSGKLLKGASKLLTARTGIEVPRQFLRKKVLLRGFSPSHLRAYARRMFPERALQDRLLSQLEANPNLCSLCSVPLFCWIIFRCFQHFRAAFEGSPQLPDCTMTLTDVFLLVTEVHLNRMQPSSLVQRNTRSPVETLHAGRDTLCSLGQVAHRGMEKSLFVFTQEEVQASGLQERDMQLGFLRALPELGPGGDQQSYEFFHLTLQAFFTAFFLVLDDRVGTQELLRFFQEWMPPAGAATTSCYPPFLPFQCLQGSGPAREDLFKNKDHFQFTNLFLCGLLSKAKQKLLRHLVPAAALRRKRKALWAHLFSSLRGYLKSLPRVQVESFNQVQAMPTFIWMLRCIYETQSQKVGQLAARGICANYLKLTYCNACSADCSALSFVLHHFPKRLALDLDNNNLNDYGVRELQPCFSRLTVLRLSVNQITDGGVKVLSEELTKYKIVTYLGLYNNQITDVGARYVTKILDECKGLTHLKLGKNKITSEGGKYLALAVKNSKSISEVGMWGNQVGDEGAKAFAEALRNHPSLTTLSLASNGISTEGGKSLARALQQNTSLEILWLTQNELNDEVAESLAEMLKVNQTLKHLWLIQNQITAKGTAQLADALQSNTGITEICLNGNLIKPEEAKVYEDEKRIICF

HEK293 = experiment: cells; details: Homo sapiens;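 also: cells exposed to compound for 14 hours overnight before viability readout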

Which results are given for `Fc1ccccc1CSc1nnc(-c2ccccc2)o1`?
IC50 (Caspase-3): 32 µM (active); IC50 [1]: 12 µM (active); IC50 [2]: 36.1 µM (active); IC50 [3]: 53 µM (active); AC50 (HeLa): 74 µM (active)

For `CCOC(=O)C1(c2nc(N)cs2)COC(=O)C1` (configuration not stated), which AC50 (Escherichia coli) is on record?
The AC50 was 24.9 µM (active).

Which EC50 (Beta-galactosidase) does the source give for `NNc1nc(-c2ccccc2)cc(-c2ccc(Br)cc2)n1` here?
The EC50 was > 40 µM (inactive).

And the IC50 [4]?
The IC50 was 2.09 µM (active).

Which results are given for `CCC(C)(C)c1ccc(OCCCC[n+]2ccccc2)c(C(C)(C)CC)c1`?
EC50 [5]: 0.357 µM (active); EC50 [6]: 19.7 µM (active); IC50 (Bcl-2-related protein A1): > 20 µM (inactive); IC50 [7]: 16.9 µM (active); IC50 [8]: 17.3 µM (active); AC50 [9]: 4.35 µM (active); IC50 [10]: 59.7 µM (inactive); AC50 (INS1): 2 µM (active); AC50 (A-375): 22.9 µM (active)

For `CCOc1ccc(NC(=O)CNC(=O)Cc2ccccc2)cc1`, which AC50 (Escherichia coli) is on record?
The AC50 was 25 µM (active).

For `COC(=O)Cn1c(C)nc2c(sc3nc(C)cc(C)c32)c1=O`, which AC50 (HeLa) is on record?
Its AC50 is > 350 µM (inactive).

What does the source list for `COc1ccc2oc(C[S+]([O-])c3ccccc3)c(C(=O)O)c2c1` (configuration not stated)?
IC50 (Tumor necrosis factor): > 20 µM (inactive); IC50 [11]: > 20 µM (inactive); IC50 (HEK293): > 20 µM (inactive)
